Like-named read-outs stand apart in the source and are kept apart here.
System: PABPC1 PABC
Type: binding, human
Conditions: DMS-BM library, bait PABPC1 PABC, row aa = residue at this position; for DMS-derived PSSM value (averaged), position S13 / DMS-derived PSSM value, position S15: S = wild type
[1] = prey ATXN2, peptide TLNPNAKEFNPRSFSQ, N = wild type
[2] = prey ATXN2, peptide KSTLNPNAKEFNPRSF, F = wild type
[3] = prey ATXN2, peptide KSTLNPNAKEFNPRSF, P = wild type
[4] = prey ATXN2, TLNPNAKEFNPRSF(averaged) over the two overlapping peptides
[5] = prey ATXN2, peptide KSTLNPNAKEFNPRSF
[6] = prey ATXN2, TLNPNAKEFNPRSF(averaged) over the two overlapping peptides, F = wild type
[7] = prey ATXN2, TLNPNAKEFNPRSF(averaged) over the two overlapping peptides, P = wild type
[8] = prey ATXN2, peptide KSTLNPNAKEFNPRSF, N = wild type
[9] = prey ATXN2, TLNPNAKEFNPRSF(averaged) over the two overlapping peptides, N = wild type
[10] = prey ATXN2, TLNPNAKEFNPRSF(averaged) over the two overlapping peptides, K = wild type
[11] = prey ATXN2, TLNPNAKEFNPRSF(averaged) over the two overlapping peptides, T = wild type
[12] = prey ATXN2, peptide TLNPNAKEFNPRSFSQ, F = wild type
[13] = prey ATXN2, TLNPNAKEFNPRSF(averaged) over the two overlapping peptides, R = wild type
[14] = prey ATXN2, peptide KSTLNPNAKEFNPRSF, R = wild type
[15] = prey ATXN2, peptide TLNPNAKEFNPRSFSQ, P = wild type
[16] = prey ATXN2, peptide KSTLNPNAKEFNPRSF, L = wild type

In the case of TLNPNAKEFNPRSFSQ N3D (TLDPNAKEFNPRSFSQ), the “DMS-derived PSSM value, position N3” value [1] is reported as 0.1652.
With “KSTLNPNAKEFNPRSF F16S (KSTLNPNAKEFNPRSS)” the “DMS-derived PSSM value, position F16” value [2] was 0.02635.
In the case of KSTLNPNAKEFNPRSF P6M (KSTLNMNAKEFNPRSF), the “DMS-derived PSSM value, position P6” value [3] is reported as 0.
For TLNPNAKEFNPRSFSQ N3P (TLPPNAKEFNPRSFSQ), the “DMS-derived PSSM value, position N3” value [1] was 0.
In the case of KSTLNPNAKEFNPRSF A8S (KSTLNPNSKEFNPRSF), the “DMS-derived PSSM value, position A8” value (prey ATXN2, peptide KSTLNPNAKEFNPRSF, A = wild type) is reported as 0.
For “TLNPNAKEFNPRSF(averaged) S13D (TLNPNAKEFNPRDF)”, the “DMS-derived PSSM value (averaged), position S13” value [4] was 0.02964.
TLNPNAKEFNPRSFSQ N3E (TLEPNAKEFNPRSFSQ) was tested, and the “DMS-derived PSSM value, position N3” value [1] was 0.
In the case of “KSTLNPNAKEFNPRSF S15Y (KSTLNPNAKEFNPRYF)”, the “DMS-derived PSSM value, position S15” value [5] is reported as 0.02596.
With “TLNPNAKEFNPRSF(averaged) F14L (TLNPNAKEFNPRSL)” the “DMS-derived PSSM value (averaged), position F14” value [6] was 0.193.
For “TLNPNAKEFNPRSF(averaged) P4W (TLNWNAKEFNPRSF)”, the “DMS-derived PSSM value (averaged), position P4” value [7] was 0.
With “TLNPNAKEFNPRSF(averaged) P11Q (TLNPNAKEFNQRSF)” the “DMS-derived PSSM value (averaged), position P11” value [7] was 0.04932.
In the case of KSTLNPNAKEFNPRSF N7D (KSTLNPDAKEFNPRSF), the “DMS-derived PSSM value, position N7” value [8] is reported as 0.07378.
In the case of “TLNPNAKEFNPRSF(averaged) N3D (TLDPNAKEFNPRSF)”, the “DMS-derived PSSM value (averaged), position N3” value [9] is reported as 0.0826.
With “KSTLNPNAKEFNPRSF F11V (KSTLNPNAKEVNPRSF)” the “DMS-derived PSSM value, position F11” value [2] was 0.
“TLNPNAKEFNPRSF(averaged) K7P (TLNPNAPEFNPRSF)” was tested, and the “DMS-derived PSSM value (averaged), position K7” value [10] was 0.005399.
In the case of “TLNPNAKEFNPRSF(averaged) P4Q (TLNQNAKEFNPRSF)”, the “DMS-derived PSSM value (averaged), position P4” value [7] is reported as 0.01774.
In the case of “TLNPNAKEFNPRSF(averaged) T1R (RLNPNAKEFNPRSF)”, the “DMS-derived PSSM value (averaged), position T1” value [11] is reported as 0.04124.
In the case of KSTLNPNAKEFNPRSF N7I (KSTLNPIAKEFNPRSF), the “DMS-derived PSSM value, position N7” value [8] is reported as 0.5578.
“TLNPNAKEFNPRSF(averaged) N3T (TLTPNAKEFNPRSF)” was tested, and the “DMS-derived PSSM value (averaged), position N3” value [9] was 0.009966.
In the case of “TLNPNAKEFNPRSFSQ F14T (TLNPNAKEFNPRSTSQ)”, the “DMS-derived PSSM value, position F14” value [12] is reported as 0.006633.
In the case of “TLNPNAKEFNPRSF(averaged) R12H (TLNPNAKEFNPHSF)”, the “DMS-derived PSSM value (averaged), position R12” value [13] is reported as 0.1075.
With “KSTLNPNAKEFNPRSF F11A (KSTLNPNAKEANPRSF)” the “DMS-derived PSSM value, position F11” value [2] was 0.
For “TLNPNAKEFNPRSF(averaged) S13W (TLNPNAKEFNPRWF)”, the “DMS-derived PSSM value (averaged), position S13” value [4] was 0.01751.
For “TLNPNAKEFNPRSF(averaged) F9L (TLNPNAKELNPRSF)”, the “DMS-derived PSSM value (averaged), position F9” value [6] was 0.
For “KSTLNPNAKEFNPRSF R14Q (KSTLNPNAKEFNPQSF)”, the “DMS-derived PSSM value, position R14” value [14] was 0.09624.
With “TLNPNAKEFNPRSF(averaged) T1Y (YLNPNAKEFNPRSF)” the “DMS-derived PSSM value (averaged), position T1” value [11] was 0.168.
In the case of KSTLNPNAKEFNPRSF P6S (KSTLNSNAKEFNPRSF), the “DMS-derived PSSM value, position P6” value [3] is reported as 0.01358.
In the case of “TLNPNAKEFNPRSF(averaged) A6R (TLNPNRKEFNPRSF)”, the “DMS-derived PSSM value (averaged), position A6” value (prey ATXN2, TLNPNAKEFNPRSF(averaged) over the two overlapping peptides, A = wild type) is reported as 0.
“TLNPNAKEFNPRSF(averaged) P4G (TLNGNAKEFNPRSF)” was tested, and the “DMS-derived PSSM value (averaged), position P4” value [7] was 0.00705.
“TLNPNAKEFNPRSF(averaged) E8H (TLNPNAKHFNPRSF)” was tested, and the “DMS-derived PSSM value (averaged), position E8” value (prey ATXN2, TLNPNAKEFNPRSF(averaged) over the two overlapping peptides, E = wild type) was 0.2075.
For “TLNPNAKEFNPRSF(averaged) N5K (TLNPKAKEFNPRSF)”, the “DMS-derived PSSM value (averaged), position N5” value [9] was 0.009917.
KSTLNPNAKEFNPRSF T3W (KSWLNPNAKEFNPRSF) was tested, and the “DMS-derived PSSM value, position T3” value (prey ATXN2, peptide KSTLNPNAKEFNPRSF, T = wild type) was 0.01564.
For TLNPNAKEFNPRSFSQ P4L (TLNLNAKEFNPRSFSQ), the “DMS-derived PSSM value, position P4” value [15] was 0.05708.
With “TLNPNAKEFNPRSFSQ P11T (TLNPNAKEFNTRSFSQ)” the “DMS-derived PSSM value, position P11” value [15] was 0.2817.
In the case of “TLNPNAKEFNPRSFSQ F14Y (TLNPNAKEFNPRSYSQ)”, the “DMS-derived PSSM value, position F14” value [12] is reported as 0.07249.
With KSTLNPNAKEFNPRSF N7E (KSTLNPEAKEFNPRSF) the “DMS-derived PSSM value, position N7” value [8] was 0.03193.
TLNPNAKEFNPRSFSQ K7L (TLNPNALEFNPRSFSQ) was tested, and the “DMS-derived PSSM value, position K7” value (prey ATXN2, peptide TLNPNAKEFNPRSFSQ, K = wild type) was 0.0009142.
With “TLNPNAKEFNPRSFSQ N10R (TLNPNAKEFRPRSFSQ)” the “DMS-derived PSSM value, position N10” value [1] was 0.03785.
“KSTLNPNAKEFNPRSF R14A (KSTLNPNAKEFNPASF)” was tested, and the “DMS-derived PSSM value, position R14” value [14] was 0.09772.
“TLNPNAKEFNPRSF(averaged) R12S (TLNPNAKEFNPSSF)” was tested, and the “DMS-derived PSSM value (averaged), position R12” value [13] was 0.1293.
“KSTLNPNAKEFNPRSF N12R (KSTLNPNAKEFRPRSF)” was tested, and the “DMS-derived PSSM value, position N12” value [8] was 0.008293.
“KSTLNPNAKEFNPRSF R14G (KSTLNPNAKEFNPGSF)” was tested, and the “DMS-derived PSSM value, position R14” value [14] was 0.105.
In the case of “TLNPNAKEFNPRSF(averaged) F9Q (TLNPNAKEQNPRSF)”, the “DMS-derived PSSM value (averaged), position F9” value [6] is reported as 0.
“TLNPNAKEFNPRSF(averaged) S13A (TLNPNAKEFNPRAF)” was tested, and the “DMS-derived PSSM value (averaged), position S13” value [4] was 0.1254.
In the case of KSTLNPNAKEFNPRSF L4N (KSTNNPNAKEFNPRSF), the “DMS-derived PSSM value, position L4” value [16] is reported as 0.
In the case of “TLNPNAKEFNPRSFSQ N10L (TLNPNAKEFLPRSFSQ)”, the “DMS-derived PSSM value, position N10” value [1] is reported as 0.1974.
With KSTLNPNAKEFNPRSF L4R (KSTRNPNAKEFNPRSF) the “DMS-derived PSSM value, position L4” value [16] was 0.
With KSTLNPNAKEFNPRSF N7R (KSTLNPRAKEFNPRSF) the “DMS-derived PSSM value, position N7” value [8] was 0.005056.
In the case of “TLNPNAKEFNPRSFSQ R12W (TLNPNAKEFNPWSFSQ)”, the “DMS-derived PSSM value, position R12” value (prey ATXN2, peptide TLNPNAKEFNPRSFSQ, R = wild type) is reported as 0.01782.
With “TLNPNAKEFNPRSF(averaged) K7D (TLNPNADEFNPRSF)” the “DMS-derived PSSM value (averaged), position K7” value [10] was 0.01005.
For “TLNPNAKEFNPRSF(averaged) P11M (TLNPNAKEFNMRSF)”, the “DMS-derived PSSM value (averaged), position P11” value [7] was 0.00553.
In the case of “TLNPNAKEFNPRSFSQ S15K (TLNPNAKEFNPRSFKQ)”, the “DMS-derived PSSM value, position S15” value (prey ATXN2, peptide TLNPNAKEFNPRSFSQ) is reported as 0.007327.
In the case of “TLNPNAKEFNPRSF(averaged) N10V (TLNPNAKEFVPRSF)”, the “DMS-derived PSSM value (averaged), position N10” value [9] is reported as 0.105.
In the case of “TLNPNAKEFNPRSF(averaged) R12L (TLNPNAKEFNPLSF)”, the “DMS-derived PSSM value (averaged), position R12” value [13] is reported as 0.02116.
For TLNPNAKEFNPRSFSQ T1I (ILNPNAKEFNPRSFSQ), the “DMS-derived PSSM value, position T1” value (prey ATXN2, peptide TLNPNAKEFNPRSFSQ, T = wild type) was 0.00436.
In the case of “KSTLNPNAKEFNPRSF S15L (KSTLNPNAKEFNPRLF)”, the “DMS-derived PSSM value, position S15” value [5] is reported as 0.4164.
In the case of TLNPNAKEFNPRSFSQ P4I (TLNINAKEFNPRSFSQ), the “DMS-derived PSSM value, position P4” value [15] is reported as 0.2422.
For “TLNPNAKEFNPRSF(averaged) L2K (TKNPNAKEFNPRSF)”, the “DMS-derived PSSM value (averaged), position L2” value (prey ATXN2, TLNPNAKEFNPRSF(averaged) over the two overlapping peptides, L = wild type) was 0.0007818.
In the case of “TLNPNAKEFNPRSF(averaged) F9G (TLNPNAKEGNPRSF)”, the “DMS-derived PSSM value (averaged), position F9” value [6] is reported as 0.
TLNPNAKEFNPRSFSQ N5F (TLNPFAKEFNPRSFSQ) was tested, and the “DMS-derived PSSM value, position N5” value [1] was 0.006389.

Reference: article PMC12102759 (Protein Science : A Publication of the Protein Society, 2025)
